Patent US20050288347A1, “Certain triazole-based compounds, compositions, and uses thereof” (priority 2004, published 2005)
Entries after “also recorded” stand apart in the source; their conditions may differ. Like-named read-outs stand apart in the source and are kept apart here.

Molecular target: protein kinase
Assay: HTS ATP-utilizing enzyme assay, off-chip mobility-shift format (Caliper HTS 250)
Assay type: biochemical, human
Details: for Kinase: kinase(s) for which the compound exhibits protein kinase inhibitory activity, active = greater than three-sigma from the mean activity of inactive compounds
Description: The following procedures describe the reagent and plate preparation for a HTS of an ATP-utilizing enzyme, such as a protein kinase, run in an off-chip mobility-shift assay format. The following provides an HTS protocol for running a protein kinase HTS screen on a Caliper HTS 250 microfluidics system. The following parameters are dependent on the protein kinase used and can be determined by one skilled in the art as part of a typical assay development process. For example, the peptide substrate used can be identified from the current literature, by screening a peptide library of potential protein kinase substrates, or by other applicable means accepted in the field.
The following table provides typical screen assay parameters appropriate for a Caliper HTS 250 microfluidics system.
The reagents and buffers listed in the following table are generally applicable for developing and running an HTS screen on a human protein kinase using the Caliper HTS 250 system.
The following reagents were prepared using the previously described buffers.
A 2× Master Buffer solution was prepared by combining 200 mL of 1 M HEPES, pH 7.5, 2 mL of 10% Triton X-100, 20 mL of 10% BSA, and 778 mL of H2O.
Assays to determine the kinase inhibitory activity of chemical entities of the present disclosure were performed using a Caliper HTS 250 microfluidics device, Greiner U-bottom assay plates, a Multidrop for transfer of reagents, and Biomek FX (AMNCBM03) software. Initially, 2.4 μL of a 1 mM solution of a test compound in 100% DMSO was added to a well of the Greiner U-bottom plate. A single Greiner U-bottom plate having 24×16 wells could include multiple test compounds. […] Using the Biomek FX, 10 μL of 0.5 M EDTA was added by the span-8 to wells, indicated as 100% Control and 2.4 μL of 100% DMSO was added by the span-8 to wells, indicated as 0% Control. […] The total reaction volume in each well was 25 μL, and the concentration of the test compound was 10 μM. The assay plate was incubated for 2.5 hrs at 20° C. to 22° C. […] The inhibition of the ATP-utilizing enzyme, such as a particular protein kinase, was determined by measuring the ratio of the peptide substrate to phosphorylated product for each well of the assay plate using the Caliper HTS 250 system.
The use of three-sigma statistical limits represents a conservative method for declaring potential hits among targets. The three-sigma activity, as well as the mean population activity, can be different for each target enzyme.

[1] = test compound 10 μM, active = activity greater than three-sigma from the mean of the predominately inactive population for that enzyme

| SMILES | Kinase (test compound 10 μM) | protein kinase against which the compound exhibits inhibitory activity (Table 3) [1] | further results |
| --- | --- | --- | --- |
| CCn1c(CNc2ccc(C)cc2)nnc1SCC#N [2-(5-((p-toluidino)methyl)-4-ethyl-4H-1,2,4-triazol-3-ylthio)acetonitrile] | PDGFRR-α and CDK1 | – | – |
| CCn1c(COc2ccc(Br)cc2)nnc1SCCC(=O)O | – | AURORA-A | – |
| CCC(c1ccccc1)c1nnc(SCc2ccc(C(=O)OC)cc2)[nH]1 (centres unmarked) [methyl 4-((5-(1-phenylpropyl)-4H-1,2,4-triazol-3-ylthio)methyl)benzoate] | – | FLT-3 | – |
| CCn1c(SCc2ccccc2Br)nnc1-c1cc(-c2ccccc2)nc2ccccc12 [4-(5-(2-bromobenzylthio)-4-ethyl-4H-1,2,4-triazol-3-yl)-2-phenylquinoline] | – | CHEK2 | – |
| OC(CSc1nnc(-c2cccc(C(F)(F)F)c2)[nH]1)C(F)(F)F (centres unmarked) | – | AURORA-A; also recorded: FLT-3; also recorded: GSK3-β | – |
| CCn1c(SCC(=O)OC)nnc1-c1ccc(O)cc1 [methyl 2-(4-ethyl-5-(4-hydroxyphenyl)-4H-1,2,4-triazol-3-ylthio)acetate] | GSK3-β; also recorded: GSK3-α; also recorded: CHEK1 | – | – |
| CCOCCSc1nnc(-c2cccc(C)c2)[nH]1 | – | AURORA-A; also recorded: FLT-3; also recorded: GSK3-β | – |
| COc1ccccc1-n1c(SC(C)C(=O)NCc2ccco2)nnc1-c1ccccc1 (centres unmarked) | – | AKT1 | – |
| COc1ccccc1-n1c(SCCCC(=O)OCc2ccccc2)nnc1-c1ccccc1 [benzyl 4-(4-(2-methoxyphenyl)-5-phenyl-4H-1,2,4-triazol-3-ylthio)butanoate] | – | AURORA-A | – |
| COc1ccc(-n2c(CNc3ccccc3Cl)nnc2SCc2ccc(Cl)cc2)cc1 | – | MAPKALPK-2 and AKT1 | – |
| COc1ccc(-c2nnc(SCCN3CCOCC3)[nH]2)cc1 [4-(2-(5-(4-methoxyphenyl)-4H-1,2,4-triazol-3-ylthio)ethyl)morpholine] | – | GSK3-α; also recorded: AURORA-A; also recorded: GSK3-β | – |
| CCOC(=O)c1ccc(CSc2nnc(Cc3ccc(OC)cc3)[nH]2)o1 | – | FLT-3 | – |
| CCOc1ccc2nc(NC(=O)CSc3nnc(-c4ccncc4)n3CCCOC)sc2c1 | GSK3-β; also recorded: PDGFRR-α; also recorded: GSK3-α | – | – |
| C=CCn1c(CSc2nc3ccccc3s2)nnc1SCC(=O)NCCO | HCK | – | – |
| COc1ccccc1-n1c(SCC2COc3ccccc3O2)nnc1-c1cccc(Cl)c1 (centres unmarked) | – | – | protein kinase against which the compound exhibits inhibitory activity (Table 3): MAPKAPK-3 |
| O=C(CSc1nnc(-c2cc3ccccc3cc2O)n1Cc1ccco1)c1ccc(F)cc1 | AURORA-A | – | – |
| CSCCc1nnc(SCC(O)C(F)(F)F)[nH]1 (centres unmarked) | – | GSK3-α | – |
| COc1ccc(-c2nnc(SCC(=O)OCc3ccccc3)n2-c2ccc(OC)cc2)cc1 [benzyl 2-(4,5-bis(4-methoxyphenyl)-4H-1,2,4-triazol-3-ylthio)acetate] | AKT1 | – | – |
| N#CCSc1nnc(C2CCCCC2)n1-c1ccccc1 [2-(5-cyclohexyl-4-phenyl-4H-1,2,4-triazol-3-ylthio)acetonitrile] | CHEK2 | – | – |
| CCOc1ccc(NCc2nnc(S)n2-c2ccc(OC)cc2)cc1 | FLT-3; also recorded: PDGFRR-α; also recorded: AURORA-A | – | – |
| COc1ccccc1-n1c(SCC(=O)c2ccc3c(c2)OCCO3)nnc1-c1cccc(Cl)c1 | – | ROCK2 | – |
| COc1ccc(-n2c(S)nnc2-c2cccnc2)cc1 [4-(4-methoxyphenyl)-5-(pyridin-3-yl)-4H-1,2,4-triazole-3-thiol] | ABL1 | – | – |
| CCn1c(CNc2ccc(Cl)cc2)nnc1SCC#N | LYNA and DYRK2 | – | – |
| CCc1nnc(SCC=C(C)C)n1CCc1ccccc1 [3-ethyl-5-(3-methylbut-2-enylthio)-4-phenethyl-4H-1,2,4-triazole] | – | GSK3-α | – |
| O=C(O)CSc1nnc(-c2cccs2)[nH]1 [2-(5-(thiophen-2-yl)-4H-1,2,4-triazol-3-ylthio)acetic acid] | DYRK2; also recorded: GSK3-β; also recorded: GSK3-α | – | – |
| O=[N+]([O-])c1ccc(-c2nnc(CSc3nncn3-c3ccccn3)o2)cc1 | – | PDGFRR-α | – |

Second part, led by results:

| Kinase (test compound 10 μM) | protein kinase against which the compound exhibits inhibitory activity (Table 3) [1] | SMILES | further results |
| --- | --- | --- | --- |
| PDGFRR-α and FYN and AURORA-A | – | COc1ccc(NCc2nnc(SCC(=O)Nc3ccc(Br)cc3)n2C)cc1 | – |
| PDGFRR-α | – | O=C(O)CSc1nnc(-c2ccc([N+](=O)[O-])cc2)n1CC1CCCO1 (centres unmarked) | – |
| – | FYN and CSK | O=C(CSc1nnc(-c2ccccc2)n1Cc1ccccc1)NNC(=O)c1ccccc1O | – |
| CHEK2 | – | COc1ccccc1-n1c(SCC(=O)O)nnc1-c1ccccc1C [2-(4-(2-methoxyphenyl)-5-o-tolyl-4H-1,2,4-triazol-3-ylthio)acetic acid] | – |
| FYN | – | Cn1c(COc2ccc3ccccc3c2)nnc1SCC(N)=O | – |
| FYN | – | Cn1c(Cn2cnc3ccccc32)nnc1SCC(=O)Nc1ccccc1Cl | – |
| FYN | – | O=C(CSc1nncn1-c1cccnc1)Nc1ccccc1[N+](=O)[O-] [N-(2-nitrophenyl)-2-(4-(pyridin-3-yl)-4H-1,2,4-triazol-3-ylthio)acetamide] | – |
| CDK1 | – | COc1ccc(OCc2nnc(SCC(=O)Nc3ccc(C)cc3Br)n2-c2ccccc2)cc1 | – |
| AURORA-A; also recorded: GSK3-α | – | O=C(CSc1nnc(-c2ccc(O)cc2)n1-c1ccccc1)CC(=O)Nc1ccccc1 | – |
| GSK3-α; also recorded: CDK2-cyclinE | – | COc1cccc(NC(=O)CSc2nnc(COc3cccc(C)c3)n2C)c1 | – |
| LCK | – | Cc1cccc(C)c1NCc1nnc(SCC(=O)Nc2ccccc2-c2ccccc2)n1C | – |
| MSK1 | – | O=C(CSc1nnc(-c2ccc(O)cc2)n1CC1CCCO1)NCCc1ccccc1 (centres unmarked) | – |
| GSK3-β; also recorded: GSK3-α | – | O=C(CSc1nnc(-c2ccc(O)cc2)n1Cc1ccco1)N1CCCc2ccccc21 | – |
| PRAK and CHEK2 and PKA | – | COc1ccc(-c2nnc(SCC(=O)Nc3cccc(NC(=O)c4ccco4)c3)n2-c2ccccc2)cc1 | – |
| LCK | – | CCc1nnc(NC(=O)CSc2nnc(-c3cccc(C)c3)n2CC)s1 | – |
| AURORA-A | – | CCn1c(SCC(=O)Nc2ccc(C)cc2)nnc1-c1ccc(O)cc1 | – |
| PAK2 | – | COc1ccc(OCc2nnc(SCC(=O)c3ccccc3)n2C)cc1 | – |
| – | GSK3-β and AURORA-A and CDK1 | Clc1cccc(-n2c(SCc3ccccc3)nnc2-c2ccncc2)c1 [4-(5-(benzylthio)-4-(3-chlorophenyl)-4H-1,2,4-triazol-3-yl)pyridine] | – |
| GSK3-α | – | O=C(CSc1nnc(-c2ccc(O)cc2)n1Cc1ccccc1)c1ccccc1 | – |
| AURORA-A | – | COCCn1c(SCC(=O)Nc2ccc3c(c2)OCO3)nnc1-c1cc2ccccc2cc1O | – |
| FYN | – | CCn1c(SCC(=O)O)nnc1-c1cc2c(C)nn(-c3ccccc3)c2s1 | – |
| AURORA-A | – | O=C(O)CSc1nnc(-c2cccnc2)n1-c1ccc(F)cc1 [2-(4-(4-fluorophenyl)-5-(pyridin-3-yl)-4H-1,2,4-triazol-3-ylthio)acetic acid] | – |
| PKA and MAPKAPK-2 and MSK1 | – | CCn1c(SCC(=O)c2ccc(OC)cc2)nnc1-c1ccncc1 | – |
| AKT1 | – | COCCn1c(SCC(=O)Nc2cccc(O)c2)nnc1-c1ccncc1 | – |
